Consider 23 compounds from patent US11708344B2, “Flavone derivatives for the treatment and prophylaxis of hepatitis B virus disease” (Hoffmann-La Roche Inc., priority 2018, dated 2023).

The test system of data set [1] is HBeAg (surrogate marker for cccDNA) in HepDES19 cells. Description: Engineered HepDES19 primary screen assay (HBeAg ELISA). Format: cell-based, HBV. Particulars: Hepatitis B virus, HepDES19, 120 h, read-out: IC50 (HBeAg level, HepDES19 primary screen assay), HepDES19 cells, 5 days compound incubation, HBeAg ELISA. The essentials: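 HepDES19 cells were induced by Tet withdrawal for 8 days, then treated with half-log compound dilutions (1% DMSO final) for 5 days at 37 °C. HBeAg was measured by ELISA as the cccDNA surrogate, viability by CCK-8, and IC50 from a 4-parameter logistic fit.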
Background: In an ELISA, binding on a coated surface is turned into a signal by an enzyme label.

In data set [2] the test system is HBsAg in HBV-infected PHH. Briefly: Cryopreserved primary human hepatocytes (PHH) HBV infection assay, extracellular HBsAg (CLIA). Format: cell-based. Particulars: Hepatitis B virus, Hepatocyte, 216 h, read-out: HBsAg IC50, Cryopreserved PHH infected with HBV, 9 days post-compound treatment, extracellular HBsAg. The essentials: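 Cryopreserved PHH were infected with 5.8×10^6 HBV genome equivalents in medium with 4% PEG8000 and 1% DMSO. After 9 days of treatment, extracellular HBsAg was measured by CLIA, and IC50 was derived from a 4-parameter logistic fit.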

Data set [3] is described as follows: Human microsome stability assay. Format: in vitro ADME. Particulars: human liver microsomes, 1 μM test compound, 0.5 mg/mL microsomal protein, 37° C., pH 7.4, 0-30 minutes. The essentials:
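Compound (1 μM) incubated at 37 °C with human liver microsomes (0.5 mg/mL protein) in 100 mM potassium phosphate, pH 7.4, after 10 min preincubation; started with NADPH regenerating system. Sampled at 0–30 min, quenched with cold ACN; remaining parent quantified by LC-MS/MS, with no-NADPH controls.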

As for `COc1cc(-c2cc(=O)c3cccc(Cl)c3o2)c(OCCCOCC(=O)O)cc1Br` [Example C013, 2-[3-[5-bromo-2-(8-chloro-4-oxo-chromen-2-yl)-4-methoxy-phenoxy]propoxy]acetic acid], the 50% inhibitory concentration (IC50) (as a rule, the point on the concentration scale where inhibition reaches its midpoint) amounted to 252 nM in data set [1] and 9320 nM in data set [2]. The “Clearance of Human microsome” value in data set [3] was 6.15 mL/min/kg.
Take `O=C(O)COCCCOc1cc(OC(F)(F)F)ccc1-c1cc(=O)c2cccc(Cl)c2o1` [Example C014, 2-[3-[2-(8-chloro-4-oxo-chromen-2-yl)-5-(trifluoromethoxy)phenoxy]propoxy]acetic acid]: the figures for the half-inhibitory concentration (IC50) in data set [1] and in data set [2] were 2190 nM and 7800 nM, respectively. In addition, the “Clearance of Human microsome” value in data set [3] is recorded as 8.04 mL/min/kg.
For `O=C(O)COCCCOc1cc2c(cc1-c1cc(=O)c3cccc(Cl)c3o1)OCO2` [Example C015, 2-[3-[[6-(8-chloro-4-oxo-chromen-2-yl)-1,3-benzodioxo1-5-yl]oxy]propoxy]acetic acid] the same measures were 7870 nM, 3360 nM and 6.15 mL/min/kg.
For `COc1cc(-c2cc(=O)c3cccc(Cl)c3o2)c(OCCCOCC(=O)O)cc1Cl` [Example C016, 2-[3-[5-chloro-2-(8-chloro-4-oxo-chromen-2-yl)-4-methoxy-phenoxy]propoxy]acetic acid] the same measures were 2460 nM, 7140 nM and 6.15 mL/min/kg.
For `Cc1ccc(-c2cc(=O)c3cccc(Br)c3o2)c(OCCCOCC(=O)O)c1` [Example C017, 2-[3-[2-(8-bromo-4-oxo-chromen-2-yl)-5-methyl-phenoxy]propoxy]acetic acid] the same measures were 492 nM, 2940 nM and 6.15 mL/min/kg.
As for `Cc1cc(-c2cc(=O)c3cccc(Cl)c3o2)c(OCCCOCC(=O)O)cc1Cl` [Example C019, 2-[3-[5-chloro-2-(8-chloro-4-oxo-chromen-2-yl)-4-methyl-phenoxy]propoxy]acetic acid], the half-inhibitory concentration (IC50) in data set [1] was determined as 185 nM; in data set [2] it was 3000 nM. Besides, the “Clearance of Human microsome” value in data set [3] was 6.71 mL/min/kg.
Consider `O=c1cc(-c2ccccc2OCCO[C@H]2C[C@@H](C(=O)O)C2)oc2c(Cl)cccc12` [Example C025-A, Cis-3-[2-[2-(8-chloro-4-oxo-chromen-2-yl)phenoxy]ethoxy]cyclobutanecarboxylic acid], for which the IC50 in data set [1] came to 191 nM; in data set [2], 2580 nM. The “Clearance of Human microsome” value in data set [3] came to 6.15 mL/min/kg.
For `O=c1cc(-c2ccccc2OCCO[C@H]2C[C@H](C(=O)O)C2)oc2c(Cl)cccc12` [Example C025-B, Trans-3-[2-[2-(8-chloro-4-oxo-chromen-2-yl)phenoxy]ethoxy]cyclobutanecarboxylic acid] the same measures were 205 nM, 2020 nM and 6.15 mL/min/kg.
Regarding `O=c1cc(-c2ccc(C(F)(F)F)cc2OCCO[C@H]2C[C@@H](C(=O)O)C2)oc2c(Cl)cccc12` [Example C026, Cis-3-[2-[2-(8-chloro-4-oxo-chromen-2-yl)-5-(trifluoromethyl)phenoxy]ethoxy]cyclobutanecarboxylic acid], the IC50 in data set [1] is 526 nM; in data set [2] it was 8950 nM. Also, the “Clearance of Human microsome” value in data set [3] is 6.81 mL/min/kg.
Regarding `O=c1cc(-c2cc(F)ccc2OCCO[C@H]2C[C@@H](C(=O)O)C2)oc2c(Cl)cccc12` [Example C033-A, Cis-3-[2-[2-(8-chloro-4-oxo-chromen-2-yl)-4-fluoro-phenoxy]ethoxy]cyclobutanecarboxylic acid], the 50% inhibitory concentration (IC50) amounted to 1340 nM in data set [1] and 1970 nM in data set [2]. The “Clearance of Human microsome” value in data set [3] was determined as 6.15 mL/min/kg.
For `O=c1cc(-c2cc(F)ccc2OCCO[C@H]2C[C@H](C(=O)O)C2)oc2c(Cl)cccc12` [Example C033-B, Trans-3-[2-[2-(8-chloro-4-oxo-chromen-2-yl)-4-fluoro-phenoxy]ethoxy]cyclobutanecarboxylic acid] the same measures were 927 nM, 4330 nM and 6.15 mL/min/kg.
For `O=c1cc(-c2ccc(F)cc2OCCO[C@H]2C[C@@H](C(=O)O)C2)oc2c(Cl)cccc12` [Example C034-A, Cis-3-[2-[2-(8-chloro-4-oxo-chromen-2-yl)-5-fluoro-phenoxy]ethoxy]cyclobutanecarboxylic acid] the same measures were 526 nM, 4690 nM and 6.15 mL/min/kg.
For `O=c1cc(-c2ccc(F)cc2OCCO[C@H]2C[C@H](C(=O)O)C2)oc2c(Cl)cccc12` [Example C034-B, Trans-3-[2-[2-(8-chloro-4-oxo-chromen-2-yl)-5-fluoro-phenoxy]ethoxy]cyclobutanecarboxylic acid], the IC50 is 1810 nM in data set [1] and 9110 nM in data set [2]. Besides, in data set [3], the “Clearance of Human microsome” value came to 6.75 mL/min/kg.
Take `O=c1cc(-c2ccccc2OCCO[C@H]2C[C@@H](C(=O)O)C2)oc2c(Cl)cc(F)cc12` [Example C036-A, Cis-3-[2-[2-(8-chloro-6-fluoro-4-oxo-chromen-2-yl)phenoxy]ethoxy]cyclobutanecarboxylic acid]: the IC50 in data set [1] turned out to be 261 nM; in data set [2], 2420 nM. Further, the “Clearance of Human microsome” value in data set [3] is 6.15 mL/min/kg.
For `O=c1cc(-c2ccccc2OCCO[C@H]2C[C@H](C(=O)O)C2)oc2c(Cl)cc(F)cc12` [Example C036-B, Trans-3-[2-[2-(8-chloro-6-fluoro-4-oxo-chromen-2-yl)phenoxy]ethoxy]cyclobutanecarboxylic acid], the IC50 in data set [1] amounted to 770 nM; in data set [2], 5580 nM. Also, the “Clearance of Human microsome” value in data set [3] is on record as 6.15 mL/min/kg.
With `Cc1ccc(-c2cc(=O)c3cccc(Cl)c3o2)c(OCCO[C@H]2C[C@@H](C(=O)O)C2)c1` [Example C038-A, Cis-3-[2-[2-(8-chloro-4-oxo-chromen-2-yl)-5-methyl-phenoxy]ethoxy]cyclobutanecarboxylic acid], the IC50 in data set [1] was 643 nM; in data set [2] it was 8610 nM. Besides, the “Clearance of Human microsome” value in data set [3] is 6.15 mL/min/kg.
For `O=c1cc(-c2cc(C(F)(F)F)c(Br)cc2OCCO[C@H]2C[C@H](C(=O)O)C2)oc2c(Cl)cccc12` [Example C042-B] the same measures were 15300 nM, 8960 nM and 6.15 mL/min/kg.
Turning to `O=c1cc(-c2cc3c(cc2OCCO[C@H]2C[C@@H](C(=O)O)C2)OCO3)oc2c(Cl)cccc12` [Example C043-A, Cis-3-[2-[[6-(8-chloro-4-oxo-chromen-2-yl)-1,3-benzodioxo1-5-yl]oxy]ethoxy]cyclobutanecarboxylic acid], the IC50 in data set [1] came out at 2680 nM; in data set [2], 8670 nM. Further, in data set [3], the “Clearance of Human microsome” value is reported as 6.15 mL/min/kg.
For `O=c1cc(-c2cc3c(cc2OCCO[C@H]2C[C@H](C(=O)O)C2)OCO3)oc2c(Cl)cccc12` [Example C043-B, Trans-3-[2-[[6-(8-chloro-4-oxo-chromen-2-yl)-1,3-benzodioxo1-5-yl]oxy]ethoxy]cyclobutanecarboxylic acid] the same measures were 9420 nM, 5200 nM and 7.72 mL/min/kg.
For `O=c1cc(-c2cc(F)c(Br)cc2OCCO[C@H]2C[C@@H](C(=O)O)C2)oc2c(Cl)cccc12` [Example C044-A, Cis-3-[2-[5-bromo-2-(8-chloro-4-oxo-chromen-2-yl)-4-fluoro-phenoxy]ethoxy]cyclobutanecarboxylic acid] the same measures were 2010 nM, 9580 nM and 6.15 mL/min/kg.
For the compound `O=C1CCCN1c1ccc(-c2cc(=O)c3cccc(Cl)c3o2)c(OCCO[C@H]2C[C@@H](C(=O)O)C2)c1` [Example C063-A, Cis-3-[2-[2-(8-chloro-4-oxo-chromen-2-yl)-5-(2-oxopyrrolidin-1-yl)phenoxy]ethoxy]cyclobutanecarboxylic acid], the 50% inhibitory concentration (IC50) in data set [1] is 4950 nM; in data set [2], 6610 nM. Besides, in data set [3], the “Clearance of Human microsome” value turned out to be 9.09 mL/min/kg.
As to `COc1cc(-c2cc(=O)c3cccc(Cl)c3o2)c(OCCO[C@H]2C[C@@H](C(=O)O)C2)cc1Br` [Example C073, Cis-3-[2-[5-bromo-2-(8-chloro-4-oxo-chromen-2-yl)-4-methoxy-phenoxy]ethoxy]cyclobutanecarboxylic acid], the IC50 amounted to 920 nM in data set [1] and 7560 nM in data set [2]. Further, the “Clearance of Human microsome” value in data set [3] is on record as 7.85 mL/min/kg.
For `CCCOc1cc(OCCO[C@H]2C[C@@H](C(=O)O)C2)c(-c2cc(=O)c3cccc(Cl)c3o2)cc1OC` [Example C077, Cis-3-[2-[2-(8-chloro-4-oxo-chromen-2-yl)-4-methoxy-5-propoxy-phenoxy]ethoxy]cyclobutanecarboxylic acid] the same measures were 3210 nM, 9370 nM and 6.15 mL/min/kg.
